Measurements from patent EP2767275A1, “Nortriptyline, haloperidol or prochlorperazine edisylate for use in the treatment of tuberculosis as well as two screening methods” (priority 2013, dated 2014).
Read-outs that look alike come from different tables or passages of the source.

Key:
[1] = test system: HeLa cells stably expressing mRFP-GFP-LC3; type: cell-based, human; details: for mRFP to GFP co-localisation: 2 hr, N and PE 10µM, Chloroquine 25 µM, BafilomycinA1 100nM; for co-localisation of mRFP and GFP over time: different periods of time
Procedure: Second, an established assay was used for measuring autophagic flux based on a tandem mRFP-GFP-LC3 construct (Kimura et al., 2007). Since GFP is quenched in the acidic environment of autophagolysosomes whereas mRFP remains stable, agents blocking autophagy flux display higher colocalization of mRFP and GFP compared to those inducing autophagy. HeLa cells stably expressing mRFP-GFP-LC3 (Settembre et al., 2011) were treated with the compounds and the co-localization between mRFP and GFP was quantified. […] Similar results were obtained for the co-localisation of LC3-GFP with LBPA in HeLa-LC3-GFP cells (Figure 12D).
The increased acidification by PE is in apparent contradiction with the inhibition of autophagic flux. To solve this discrepancy, HeLa cells stably expressing mRFP-GFP- -LC3 were treated with the compounds for different periods of time.

M. bovis BCG-GFP [2] = type: cell-based; details: for pattern-specific score (PSS): 10µM, 48 hr
HeLa cells = experiment: High content autophagy assay (LC3 immunostaining); type: cell-based, human; details: 10µM (Rapamycin 5.5 µM), 4 hr
Procedure: HeLa cells were treated with the compounds at a final concentration of 10µM, incubated for 4 hr, fixed with 3.7% PFA and immunostained with anti-LC3 antibody (clone PM036, MBL labs). Cells were counterstained by DAPI and Cell Mask Blue, imaged and analyzed as described above.
Autophagy is a key process regulated by mTOR (Laplante and Sabatini, 2012) and a known mediator of intracellular mycobacterial survival (Gutierrez et al., 2004; Kumar et al., 2010). The integration approach predicted that compounds from E1, but not E2, modulate autophagy. To test it, HeLa cells were treated with the compounds, immunostained for the autophagosome marker LC3 and multiple parameters reporting diverse facets of autophagosomes were extracted (Table 3). […] Of the three compounds validated in intracellular mycobacterial killing, Nortriptyline and PE belong to sub-cluster E1 whereas Haloperidol belongs to E2.

M. bovis BCG-GFP [3] = type: cell-based; details: 10µM, 4 days plus 24hr with alamar blue
[4] = test system: A431 cells stably expressing GFP-Rab5; experiment: Live cell imaging of endosome motility; type: cell-based; details: 10µM, 2 hr
M. bovis BCG-GFP [5] = type: cell-based
HeLa BAC GFP-Rab5c = experiment: Cell-based LDL trafficking assay; design: species or system human
HeLa BAC LC3-GFP = type: cell-based, human
LC3 = details: for LC3-II band: 10 µM; for additive effects of BafilomycinA1 on LC3-II band: 10 µM with BafilomycinA1 100nM
M. bovis BCG-GFP [6] = type: cell-based; remark: listed apart in the source

## CO/C1=C\C(C)=C\[C@@H](C)[C@@H](O)[C@@H](C)C/C(C)=C/C=C/[C@H](OC)[C@@H]([C@@H](C)[C@@H](O)[C@H](C)[C@@]2(O)C[C@@H](O)[C@H](C)[C@@H](C(C)C)O2)OC1=O [BafilomycinA1]
[1]
  mRFP to GFP co-localisation: higher co-localisation
  co-localisation of mRFP and GFP over time: increased over time

## C[C@@H]1CC[C@@]2(OC1)O[C@H]1C[C@H]3[C@@H]4CC[C@@H]5C[C@@H](O)CC[C@]5(C)[C@H]4CC[C@]3(C)[C@H]1[C@@H]2C [SMILAGENIN]
M. bovis BCG-GFP [2]
  pattern-specific score (PSS): 0.7198

## TOTAROL ACETATE
M. bovis BCG-GFP [2]
  pattern-specific score (PSS): 0.7904

## CCN(CC)CCCC(C)Nc1ccnc2cc(Cl)ccc12 (centres unmarked) [Chloroquine]
[1]
  mRFP to GFP co-localisation: higher co-localisation
  co-localisation of mRFP and GFP over time: increased over time

## O=C(CCCN1CCC(O)(c2ccc(Cl)cc2)CC1)c1ccc(F)cc1 [Haloperidol, 4-[4-(4-chlorophenyl)-4-hydroxy-1-piperidyl]-1-(4-fluorophenyl)-butan-1-one]
HeLa cells
  effect on autophagy: did not
M. bovis BCG-GFP [3]
  effect in the alamar blue screen: lack of effect
[4]
  mean square displacement of endosomes: long, but not short, time-scale movements of GFP-Rab5 endosomes were significantly accelerated
  motility of early endosomes: much higher motility of early endosomes harboring high levels of Rab5
M. bovis BCG-GFP [2]
  phenotype (phenotypic profile) in mycobacteria high content screen: reduced bacterial intensity, fewer bacteria and infected cells
M. bovis BCG-GFP [5]; 10 µM
  bacteriostatic activity on M. bovis BCG-GFP at neutral and acidic pH: did not show bacteriostatic activity
HeLa BAC GFP-Rab5c; 10µM, LDL pulse for different times
  intensity of LDL in early and late endosomes: significantly increased the intensity of LDL in late, but not early endosomes
HeLa BAC GFP-Rab5c; 10 µM, late, but not early endosomes
  size, number and position of LDL-containing late endosomes: larger, more numerous and closer to the cell centre

## NC(C(=O)O)C(O)C(=O)O [D;L-THREO-3-HYDROXYASPARTIC ACID]
M. bovis BCG-GFP [2]
  pattern-specific score (PSS): 0.8004

## TRIMEPRAZINE TARTRATE
M. bovis BCG-GFP [2]
  pattern-specific score (PSS): 1

## Cn1cnc(N)c2ncnc1-2 [3-MA, 3-Methyl Adenine]
M. bovis BCG-GFP [2]
  effect of 3-MA on action of Nortriptyline on mycobacterial survival: reverted the effect of Nortriptyline on mycobacterial survival

## CC1(C)CC2C1CCC1(C)OC2(C)CCC1O (centres unmarked) [3;7-EPOXYCARYOPHYLLAN-6-OL]
M. bovis BCG-GFP [2]
  pattern-specific score (PSS): 0.7194

## CN1CCc2c(c3ccccc3n2Cc2ccccc2)C1.CN1CCc2c(c3ccccc3n2Cc2ccccc2)C1.O=S(=O)(O)c1cccc2c(S(=O)(=O)O)cccc12 [MEBHYDROLIN NAPHTHALENESULFONATE]
M. bovis BCG-GFP [2]
  pattern-specific score (PSS): 0.9999

## CO/N=C(\C(=O)N[C@@H]1C(=O)N2C(C(=O)OCOC(=O)C(C)(C)C)=C(/C=C\c3scnc3C)CS[C@H]12)c1csc(N)n1 [CEFDITORIN PIVOXIL]
M. bovis BCG-GFP [2]
  pattern-specific score (PSS): 0.8626

## COc1cc2c3cc1Oc1cc(ccc1O)C[C@@H]1c4c(cc(OC)c(O)c4Oc4ccc(cc4)C[C@@H]3N(C)CC2)CC[N+]1(C)C.Cl.O.O.O.O.O.[Cl-] [TUBOCURARINE CHLORIDE]
M. bovis BCG-GFP [2]
  pattern-specific score (PSS): 0.7944

## OC[C@@H](O)[C@@H](OC1O[C@H](CO)[C@@H](O)[C@H](O)[C@H]1O)[C@H](O)[C@@H](O)CO (some centres unmarked) [GLUCITOL-4-GUCOPYANOSIDE]
M. bovis BCG-GFP [2]
  pattern-specific score (PSS): 0.8836

## CNCCC=C1c2ccccc2CCc2ccccc21 [Nortriptyline, 3-(10,11-dihydro-5H-dibenzo[a,d]cyclohepten-5-ylidene)-N-methyl-1-propanamine]
HeLa BAC LC3-GFP
  additive effect with BafilomycinA1 and Chloroquine in increasing LC3-GFP vesicles: had an additive effect
HeLa cells
  effect on autophagy: strong effect on autophagy
M. bovis BCG-GFP [3]
  effect in the alamar blue screen: lack of effect
[1]
  mRFP to GFP co-localisation: low mRFP to GFP co-localisation
M. bovis BCG-GFP [2]
  phenotype (phenotypic profile) in mycobacteria high content screen: reduced bacterial intensity, fewer bacteria and infected cells
LC3
  LC3-II band: significant increase in the LC3-II band
  additive effects of BafilomycinA1 on LC3-II band: additive effects of BafilomycinA1 were seen
M. bovis BCG-GFP [6]
  synergy with IFN-γ on mycobacterial survival: synergized strongly with IFN-γ
M. bovis BCG-GFP [5]
  bacteriostatic activity on M. bovis BCG-GFP at neutral and acidic pH: did not show bacteriostatic activity

## CN1CCN(CCCN2c3ccccc3Sc3ccc(Cl)cc32)CC1 [Prochlorperazine edisylate, 2-chloro-10-[3-(4-methyl-1-piperazinyl)propyl]-10H-phenothiazine]
HeLa BAC LC3-GFP; 10 µM, 4 hours, Chloroquine 25 µM, BafilomycinA1 100nM
  additive effect with BafilomycinA1 and Chloroquine in increasing LC3-GFP vesicles: not
HeLa cells
  effect on autophagy: strong effect on autophagy
M. bovis BCG-GFP [3]
  effect in the alamar blue screen: lack of effect
[1]
  mRFP to GFP co-localisation: higher co-localisation
  co-localisation of mRFP and GFP over time: increased within the first hr but then progressively decreased
M. bovis BCG-GFP [2]
  phenotype (phenotypic profile) in mycobacteria high content screen: reduced bacterial intensity, fewer bacteria and infected cells
LC3
  LC3-II band: significant increase in the LC3-II band
  additive effects of BafilomycinA1 on LC3-II band: not
M. bovis BCG-GFP [6]
  synergy with IFN-γ on mycobacterial survival: much weaker effect
M. bovis BCG-GFP [5]; 10 µM
  bacteriostatic activity on M. bovis BCG-GFP at neutral and acidic pH: did not show bacteriostatic activity

## CC([C@H](O)c1ccccc1)N(C)C (stereo partly drawn) [N-METHYL (-)EPHEDRINE]
M. bovis BCG-GFP [2]
  pattern-specific score (PSS): 0.8936

## COc1cc2c(cc1OC)C1(O)C(=O)c3ccc(O)c(C(=O)O)c3OC1CO2 (centres unmarked) [12A-HYDROXY-9-DEMETHYLMUNDUSERONE-8-CARBOXYLIC ACID]
M. bovis BCG-GFP [2]
  pattern-specific score (PSS): 0.8387

## O=S(=O)(NCCNC/C=C/c1ccc(Br)cc1)c1cccc2cnccc12 [H89]
M. bovis BCG-GFP [2]
  pattern-specific score (PSS): 0.9636

## CN(C)c1nc(N)c(C(=O)N=C(N)N)nc1Cl [N;N-DIMETHYLAMILORIDE]
M. bovis BCG-GFP [2]
  pattern-specific score (PSS): 0.5976

## CSc1ccc2c(c1)C(N1CCN(C)CC1)Cc1ccccc1S2.O=C(O)/C=C\C(=O)O (centres unmarked) [METHIOTHEPIN MALEATE]
M. bovis BCG-GFP [2]
  pattern-specific score (PSS): 0.9941

## O=c1cc(-c2cc(O)c(O)c(O)c2)oc2cc(O)cc(O)c12 [HIERACIN]
M. bovis BCG-GFP [2]
  pattern-specific score (PSS): 0.3164
